pIC50: −log10 of the molar value.
Target: full-length recombinant human NEK7 (Homo sapiens (Human), UniProt Q8TDX7)
Experiment: NEK7 Enzymatic Assay
Type: biochemical
Conditions: casein substrate, [33P]-ATP, 2 hours at room temperature
Protocol: Casein substrate (from bovine milk, hydrolyzed and partially dephosphorylated mixture of α, β and κ caseins, obtained from Sigma Aldrich, catalogue #C4765, diluted in distilled water to a final concentration of 1 mg/mL) and full-length recombinant human NEK7 (expressed by baculovirus in Sf9 insect cells using a N-terminal GST tag, obtained from SignalChem, catalogue #N09-10G, 0.1 μg/μL) were mixed in assay buffer (20 mM HEPES pH 7.5, 10 mM MgCl2, 1 mM EGTA, 0.02% Brij35, 0.02 mg/mL BSA, 0.1 mM Na3VO4, 2 mM DTT, 1% DMSO). Compounds of interest (serial 3-fold dilution in DMSO from 10 μM to 0.5 nM) or vehicle (1% DMSO) were dispensed into the kinase reaction mixture by Acoustic technology (Echo550; nanoliter range). After incubation at room temperature for 20 minutes, the kinase reaction was initiated by addition of [^33P]-ATP (specific activity 10 μCi/μL) and the mixture was incubated at room temperature for 2 hours. The reaction was then stopped by spotting the reaction mixture on strips of phosphocellulose P81 paper. Following washing, the radioactivity of the P81 paper was measured and kinase activity data were expressed as the percent remaining kinase activity in test samples compared to vehicle reactions. IC50 values and curve fits were obtained using Prism (GraphPad Software).

full-length recombinant human NEK7, sequence (Q8TDX7 whole entry): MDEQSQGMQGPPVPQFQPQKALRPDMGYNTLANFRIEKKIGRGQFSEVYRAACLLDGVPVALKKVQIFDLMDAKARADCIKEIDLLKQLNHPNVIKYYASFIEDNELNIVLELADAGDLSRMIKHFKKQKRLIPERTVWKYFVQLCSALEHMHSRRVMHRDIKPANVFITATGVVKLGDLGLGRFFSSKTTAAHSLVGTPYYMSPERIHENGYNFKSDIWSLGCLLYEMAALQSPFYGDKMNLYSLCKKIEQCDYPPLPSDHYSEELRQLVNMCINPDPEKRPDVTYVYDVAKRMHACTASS

SMILES	pIC50
COCCn1cc(-c2ccc(NC(=O)Nc3cc(C4(C(F)(F)F)CC4)on3)c3nccn23)c2c(N)ncnc21 [Example I-89, 1-(5-(4-amino-7-(2-methoxy-ethyl)-7H-pyrrolo[2,3-d]-pyrimidin-5-yl)imidazo[1,2-a]pyridin-8-yl)-3-(5-(1-(trifluoromethyl)cyclopropyl)-isoxazol-3-yl)urea]	> 6.70
COCCN1CCN(Cc2ccc(NC(=O)Nc3ccc(-c4cn(C5CC5)c5ncnc(N)c45)n4ccnc34)cc2C(F)(F)F)CC1 [Example I-40, 1-(5-(4-amino-7-cyclopropyl-7H-pyrrolo[2,3-d]pyrimidin-5-yl)imidazo[1,2-a]pyridin-8-yl)-3-(4-((4-(2-methoxyeth-yl)piperazin-1-yl)methyl)-3-(trifluoromethyl)phenyl)urea]	> 6.70
CN1CCN(Cc2ccc(NC(=O)Nc3ccc(-c4cn(C)c5ncnc(N)c45)n4ccnc34)cc2C(F)(F)F)CC1 [Example I-127, 1-(5-(4-amino-7-methyl-7H-pyrrolo[2,3-d]pyrimidin-5-yl)imidazo[1,2-a]pyridin-8-yl)-3-(4-((4-methylpiperazin-1-yl)methyl)-3-(trifluorometh-yl)phenyl)urea]	> 6.70
Nc1ncnc2c1c(-c1ccc(NC(=O)Nc3cc(C4(C(F)(F)F)CC4)no3)c3ncccc13)cn2C1CC1 [Example I-3, 1-(5-(4-amino-7-cyclopropyl-7H-pyrrolo[2,3-d]pyrimidin-5-yl)quinolin-8-yl)-3-(3-(1-(trifluoromethyl)cyclopropyl)-isoxazol-5-yl)urea]	< 5.70
CC(C)n1cc(-c2ccc(NC(=O)Nc3ccc(OC4CCN(C)CC4)c(C(F)(F)F)c3)c3nccn23)c2c(N)ncnc21 [Example I-135, 1-(5-(4-amino-7-isopropyl-7H-pyrrolo[2,3-d]pyrimidin-5-yl)imidazo[1,2-a]pyridin-8-yl)-3-(4-((1-methylpiperidin-4-yl)oxy)-3-(trifluoromethyl)-phenyl)urea]	> 6.70
Cn1cc(-c2ccc(NC(=O)Nc3cc(C4(C(F)(F)F)CC4)on3)c3nccn23)c2c(N)ncnc21 [Example I-126, 1-(5-(4-amino-7-methyl-7H-pyrrolo[2,3-d]pyrimidin-5-yl)imidazo[1,2-a]pyridin-8-yl)-3-(5-(1-(trifluoromethyl)-cyclopropyl)isoxazol-3-yl)urea]	> 6.70
CC1(c2cc(NC(=O)Nc3ccc(-c4cn(C5CC5)c5ncnc(N)c45)c4ccncc34)on2)CC1 [Example I-6, 1-(5-(4-amino-7-cyclopropyl-7H-pyrrolo[2,3-d]pyrimidin-5-yl)isoquinolin-8-yl)-3-(3-(1-methylcyclopropyl)isoxazol-5-yl)urea]	6.30 to 6.70
Nc1ncnc2c1c(-c1ccc(NC(=O)Nc3cc(C4(C(F)(F)F)CCC4)no3)c3nccn13)cn2C1CC1 [Example I-23, 1-(5-(4-amino-7-cyclopropyl-7H-pyrrolo[2,3-d]pyrimidin-5-yl)imidazo[1,2-a]pyridin-8-yl)-3-(3-(1-(trifluoromethyl)-cyclobutyl)isoxazol-5-yl)urea]	> 6.70
CC1(c2cc(NC(=O)Nc3ccc(-c4cn(C5CC5)c5ncnc(N)c45)n4ccnc34)on2)CCC1 [Example I-19, 1-(5-(4-amino-7-cyclopropyl-7H-pyrrolo[2,3-d]pyrimidin-5-yl)imidazo[1,2-a]pyridin-8-yl)-3-(3-(1-methylcyclobutyl)-isoxazol-5-yl)urea]	6.30 to 6.70
CCN1CCC(Oc2ccc(NC(=O)Nc3ccc(-c4cn(C(C)C)c5ncnc(N)c45)n4ccnc34)cc2C(F)(F)F)CC1 [Example I-136, 1-(5-(4-amino-7-isopropyl-7H-pyrrolo[2,3-d]pyrimidin-5-yl)imidazo[1,2-a]pyridin-8-yl)-3-(4-((1-ethylpiperidin-4-yl)oxy)-3-(trifluoromethyl)-phenyl)urea]	> 6.70
CC1(C)Cc2c(-c3cn(C4CCC4)c4ncnc(N)c34)ccc(NC(=O)Nc3cc(C4(C(F)(F)F)CC4)on3)c2O1 [Example I-122, 1-(4-(4-amino-7-cyclobutyl-7H-pyrrolo[2,3-d]pyrimidin-5-yl)-2,2-dimethyl-2,3-dihydrobenzofuran-7-yl)-3-(5-(1-(trifluoromethyl)cyclo-propyl)isoxazol-3-yl)urea]	5.70 to 6.30
Nc1ncnc2c1c(-c1ccc(NC(=O)Nc3cc(C4(C(F)(F)F)CC4)on3)c3ocnc13)cn2C1CC1 [Example I-71, 1-(4-(4-amino-7-cyclopropyl-7H-pyrrolo[2,3-d]pyrimidin-5-yl)benzo[d]oxazol-7-yl)-3-(5-(1-(trifluoromethyl)cyclo-propyl)isoxazol-3-yl)urea]	5.70 to 6.30

Now from value to molecule:

pIC50	SMILES
6.30 to 6.70	CCc1cc(NC(=O)Nc2ccc(-c3cn(C4CC4)c4ncnc(N)c34)n3ccnc23)on1 [Example I-15, 1-(5-(4-amino-7-cyclopropyl-7H-pyrrolo[2,3-d]pyrimidin-5-yl)imidazo[1,2-a]pyridin-8-yl)-3-(3-ethylisoxazol-5-yl)-urea]
< 5.70	Nc1ncnc2c1c(-c1ccc(NC(=O)Nc3cc(C4(C(F)(F)F)CC4)no3)c3occc13)cn2C1CC1 [Example I-64, 1-(4-(4-amino-7-cyclopropyl-7H-pyrrolo[2,3-d]pyrimidin-5-yl)benzofuran-7-yl)-3-(3-(1-(trifluoromethyl)cyclo-propyl)isoxazol-5-yl)urea]
> 6.70	CCN1CCC(Oc2ccc(NC(=O)Nc3ccc(-c4cn(C5CCC5)c5ncnc(N)c45)n4ccnc34)cc2C(F)(F)F)CC1 [Example I-137, 1-(5-(4-amino-7-cyclobutyl-7H-pyrrolo[2,3-d]pyrimidin-5-yl)imidazo[1,2-a]pyridin-8-yl)-3-(4-((1-ethylpiperidin-4-yl)oxy)-3-(trifluoromethyl)-phenyl)urea]
5.70 to 6.30	CC1Cc2c(-c3cn(C4CC4)c4ncnc(N)c34)ccc(NC(=O)Nc3cc(C4(C(F)(F)F)CC4)on3)c2O1 (stereo not shown) [Example I-56, 1-(4-(4-amino-7-cyclopropyl-7H-pyrrolo[2,3-d]pyrimidin-5-yl)-2-methyl-2,3-dihydro-benzofuran-7-yl)-3-(5-(1-(trifluoromethyl)cyclopropyl)-isoxazol-3-yl)urea]
> 6.70	CCN1CCN(Cc2ccc(NC(=O)Nc3ccc(-c4cn(C5CC5)c5ncnc(N)c45)c4c3OCC4)cc2C(F)(F)F)CC1 [Example I-54, 1-(4-(4-amino-7-cyclopropyl-7H-pyrrolo[2,3-d]pyrimidin-5-yl)-2,3-dihydrobenzofuran-7-yl)-3-(4-((4-ethylpiperazin-1-yl)methyl)-3-(trifluorometh-yl)phenyl)urea]
6.30 to 6.70	CC1(C)Cc2c(-c3cn(C4CC4)c4ncnc(N)c34)ccc(NC(=O)Nc3cc(C4(C(F)(F)F)CC4)on3)c2O1 [Example I-59, 1-(4-(4-amino-7-cyclopropyl-7H-pyrrolo[2,3-d]pyrimidin-5-yl)-2,2-dimethyl-2,3-dihydrobenzofuran-7-yl)-3-(5-(1-(trifluoromethyl)cyclo-propyl)isoxazol-3-yl)urea]
< 5.70	Cc1cc(NC(=O)Nc2ccc(-c3cn(C4CC4)c4ncnc(N)c34)n3ccnc23)on1 [Example I-14, 1-(5-(4-amino-7-cyclopropyl-7H-pyrrolo[2,3-d]pyrimidin-5-yl)imidazo[1,2-a]pyridin-8-yl)-3-(3-methylisoxazol-5-yl)-urea]

From patent publication US20240158394A1, “NEK7 INHIBITORS” (Halia Therapeutics, Inc., priority 2022, published 2024)
